ChEMBL document CHEMBL3046518, “Phytotoxic Compounds Cochlioquinones Are Inhibitors of Mitochondrial NADH-Ubiquinone Reductase” (J Pestic Sci, 1996)
Blank lines part the entries; values can stand above or below the compound they belong to. Calls of active or inactive are those of the source. The rule behind the calls is not given here.

How the values were obtained:
[1] = Inhibition of Bos taurus (bovine) heart mitochondrial […] activity assessed per mg protein
[2] = Inhibition of Bos taurus (bovine) heart mitochondrial electron transport protein complex 2 assessed per mg protein
[3] = Inhibition of Bos taurus (bovine) heart mitochondrial electron transport protein complex 1 assessed per mg protein
[4] = Inhibition of Solanum tuberosum (potato) tuber proton-pump NADH dehydrogenase activity assessed per mg protein
[5] = Inhibition of Bos taurus (bovine) heart mitochondrial electron transport protein complex 3 assessed per mg protein
Solanum tuberosum [6] = experiment: Inhibition of Solanum tuberosum (potato) tuber succinate oxidase activity at 3600 nmol/mg protein
[7] = Inhibition of Bos taurus (bovine) heart mitochondrial electron transport protein complex 4 assessed per mg protein
Solanum tuberosum [8] = experiment: Inhibition of Solanum tuberosum (potato) tuber electron transport protein complex 4 activity
Solanum tuberosum [9] = experiment: Inhibition of Solanum tuberosum (potato) tuber electron transport protein complex 2 activity
[10] = Inhibition of Bos taurus (bovine) heart mitochondrial electron transport protein complex 2/3 assessed per mg protein
Solanum tuberosum [11] = experiment: Inhibition of Solanum tuberosum (potato) tuber electron transport protein complex 3 activity

SMILES: CC[C@H](C)[C@@H](OC(C)=O)[C@@H](C)C1=CC(=O)C2=C(O[C@]3(C)CC[C@H]4O[C@@H](C(C)(C)O)CC[C@]4(C)[C@H]3[C@@H]2O)C1=O [COCHLIOQUINONE A]
- IC50 [1]: 115 nmol

- IC50 [2]: > 3600 nmol
- IC50 [1]: 83 nmol
- IC50 [4]: 3000 nmol
- IC50 [5]: > 3600 nmol
- inhibition (Solanum tuberosum [6]): inactive
- IC50 [7]: > 3600 nmol
- inhibition (Solanum tuberosum [8]): inactive
- inhibition (Solanum tuberosum [9]): inactive
- IC50 [10]: > 3600 nmol
- inhibition (Solanum tuberosum [11]): inactive
SMILES: CC[C@H](C)C(=O)[C@@H](C)C1=CC(=O)C2=C(O[C@]3(C)CC[C@H]4O[C@@H](C(C)(C)O)CC[C@]4(C)[C@H]3C2)C1=O [COCHLIOQUINONE B]
- IC50 [3]: 370 nmol

SMILES: CC[C@H](C)[C@@H](OC(C)=O)[C@@H](C)c1cc(O)c2c(c1O)O[C@]1(C)CC[C@H]3O[C@@H](C(C)(C)O)CC[C@]3(C)[C@H]1C2=O [ISOCOCHLIOQUINONE A]
- IC50 [1]: 56 nmol

SMILES: C/C=C(\C)[C@@H](OC(C)=O)[C@@H](C)C1=CC(=O)C2=C(O[C@]3(C)CC[C@H]4O[C@@H](C(C)(C)O)CC[C@]4(C)[C@H]3[C@@H]2O)C1=O [STEMPHONE]
- IC50 [1]: 160 nmol
